The values that follow come from article PMC9416741, “New-Generation Heterocyclic Bis-Pentamethinium Salts as Potential Cytostatic Drugs with Dual IL-6R and Mitochondria-Targeting Activity” (Pharmaceutics, 2022).

Data set [1] has as its target T1, IL-6R (IL-6 receptor containing α and β subunits) (Homo sapiens, UniProt P08887+P40189).
T1 construct: gene IL6R; commercial IL-6R (Bio-Techne R&D Systems), said to contain alpha and beta subunits
T1 sequence (P08887 20-365 limits assumed): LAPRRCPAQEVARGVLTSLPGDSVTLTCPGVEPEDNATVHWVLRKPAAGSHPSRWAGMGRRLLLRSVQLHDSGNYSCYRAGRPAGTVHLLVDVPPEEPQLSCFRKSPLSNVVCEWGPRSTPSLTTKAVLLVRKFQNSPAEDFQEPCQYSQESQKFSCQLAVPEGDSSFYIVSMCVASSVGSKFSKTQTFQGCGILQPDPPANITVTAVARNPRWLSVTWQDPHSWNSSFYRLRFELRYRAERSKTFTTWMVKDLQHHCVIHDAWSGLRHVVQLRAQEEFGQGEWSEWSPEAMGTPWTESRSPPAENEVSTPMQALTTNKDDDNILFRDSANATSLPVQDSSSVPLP
T1 sequence (P40189 23-619 limits assumed): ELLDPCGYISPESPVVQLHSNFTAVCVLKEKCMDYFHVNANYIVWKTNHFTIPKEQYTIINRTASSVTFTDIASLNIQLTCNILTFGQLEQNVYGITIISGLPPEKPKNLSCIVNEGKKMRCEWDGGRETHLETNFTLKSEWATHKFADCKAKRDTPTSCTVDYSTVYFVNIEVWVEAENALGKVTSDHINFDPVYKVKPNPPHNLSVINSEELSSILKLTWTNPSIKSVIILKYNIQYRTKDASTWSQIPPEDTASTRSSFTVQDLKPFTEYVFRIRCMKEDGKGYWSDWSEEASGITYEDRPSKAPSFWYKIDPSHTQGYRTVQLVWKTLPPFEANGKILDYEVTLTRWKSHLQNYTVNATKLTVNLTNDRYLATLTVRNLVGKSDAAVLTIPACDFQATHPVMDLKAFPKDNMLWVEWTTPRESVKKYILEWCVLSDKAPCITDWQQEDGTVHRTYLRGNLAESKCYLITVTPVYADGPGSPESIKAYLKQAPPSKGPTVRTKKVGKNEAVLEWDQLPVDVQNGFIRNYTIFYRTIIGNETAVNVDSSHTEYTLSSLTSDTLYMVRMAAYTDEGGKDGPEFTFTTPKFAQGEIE
The experiment in a line: microscale thermophoresis (T-jump). As to conditions: read-out: dissociation constant. Format: binding. A general note: Microscale thermophoresis detects binding through changes in fluorescence in a small temperature gradient.

The next data set can be described thus: in vitro. On the set-up: MTT metabolic activity assay, absorbance at 570 nm. As to conditions: human, single replicate. How it is done:
(§1) A colorimetric MTT cell metabolic activity assay was used to determine the cytotoxicity of Bis-PMSs 5 and 6. For these experiments, the HF-P4, BJ-hTERT, BLM, A-2058, U-2 OS, H1299 and BT-20 cells were cultured under standard conditions (37 °C, humidified atmosphere with 5% CO2 in air) in culture medium (DMEM, RPMI-1640, McCoy’s or EMEM with 10% FBS). Cells were plated in 96-well plates at a density of 5000 cells per well and grown for 24 h. The medium was then replaced with a medium containing Bis-PMSs 5 and 6, and cells were cultured for an additional 48 h. Afterwards, the medium was exchanged for medium with the MTT yellow tetrazolium dye (3-(4,5-dimethylthiazol-2-yl)-2,5-diphenyltetrazolium bromide, Sigma-Aldrich) and incubated for 2 h at 37 °C. After that, the yellow tetrazole dye was removed and DMSO was used to dissolve the reduced purple formazan formed in living cells. The absorbance of the converted dye was measured at a wavelength of 570 nm with the reference of 630 nm using a SpectraMax ABS Plus microplate reader (Molecular Devices). Experiments were performed in quadruplicate and repeated three times with similar results. In U251MG and GL261 cells, an assay assessing cell growth independent of mitochondrial respiration was used. Cells were plated in 96-well plates at a density of 5000 cells per well and grown for 24 h under standard conditions in culture medium (DMEM and RPMI-1640 with 10% FBS for U251MG and Gl261 cells, respectively). The medium was then replaced by that supplemented with Bis-PMSs 5 and 6. After 72 h of exposure, surviving cells were fixed and stained with [compound left out] blue (5 g/L in 50%, v/v, ethanol) and lysed with 1% sodium dodecyl sulfate, and the relative cell number was determined by reading absorbance at 630 nm using a 96-well plate reader (Sunrise; Tecan, Männedorf, Switzerland). The cell inhibitory concentration (IC) was calculated using the equation IC = (APMS well/mean Acontrol wells) × 100%. The half-maximal inhibitory concentration (IC50) was calculated from dose–response curves using GraphPad Prism software (v. 8.0.1, La Jolla, CA, USA). The selectivity indexes towards cancer cells were calculated as a ratio of the average of the IC50 values for HF-P4 and BJ-hTERT human fibroblasts and the IC50 value for the corresponding cancer cell line. For U251MG and Gl261 glioblastoma cells, the cytoselectivity was calculated against normal HF P4 fibroblast cells, which were analyzed using the same cytotoxicity assay. The cytotoxic activities of Bis-PMSs 5 and 6 were evaluated in normal (HF-P4 and BJ-hTERT fibroblasts) and malignant (BLM, A-2058, U-2 OS, H1299, BT-20) cells using a conventional MTT viability assay. For the measurements, cells were exposed to 0–10 µM of Bis-PMSs 5 and 6 under standard conditions in a complete cell culture medium and cell viability was measured after 48 h of treatment. In addition, cytotoxicity was tested in U251MG and Gl261 glioma cells using an assay that assesses cell growth independent of mitochondrial respiration (Figures S10 and S11 and Table S3).

The next data set relates to BJ-hTERT. The data set is described as follows: in vitro. On the set-up: MTT metabolic activity assay, absorbance at 570 nm. As to conditions: single replicate, 48 h. How it is done: as §1
For another data set, the system named is HFP4. The experiment in a line: in vitro. The arrangement: MTT metabolic activity assay, absorbance at 570 nm. The settings on record: single replicate, 48 h. How it is done: as §1
The next data set has as its system A2058. The experiment in a line: cells. As to conditions: Homo sapiens, A2058, 48 h, single replicate. On the set-up: MTT metabolic activity assay, absorbance at 570 nm. How it is done:
as §1

For another data set, the system named is BLM. The experiment in a line: cells. The arrangement: MTT metabolic activity assay, absorbance at 570 nm. As to conditions: 48 h, single replicate. How it is done: as §1
The subject of a further data set is BT-20. The experiment in a line: cells. The settings on record: Homo sapiens, BT-20, 48 h, single replicate. The arrangement: MTT metabolic activity assay, absorbance at 570 nm. How it is done: as §1
In the next data set the test system is H1299. The data set is described as follows: cells. On the set-up: MTT metabolic activity assay, absorbance at 570 nm. As to conditions: Homo sapiens, NCI-H1299, 48 h, single replicate. How it is done:
as §1

For the next data set, the system named is U2-OS. The data set is described as follows: cells. On the set-up: MTT metabolic activity assay, absorbance at 570 nm. As to conditions: Homo sapiens, U2OS, 48 h, single replicate. How it is done: as §1
A further data set concerns Gl261. The data set is described as follows: cells. On the set-up: Cell growth by dye staining of fixed cells, absorbance at 630 nm, independent of mitochondrial respiration. The settings on record: Mus musculus, GL261, 72 h, single replicate. How it is done: as §1
The next data set concerns U251. The data set is described as follows: cells. As to conditions: Homo sapiens, U-251, 72 h, single replicate. The arrangement: Cell growth by dye staining of fixed cells, absorbance at 630 nm, independent of mitochondrial respiration. How it is done: as §1
The target in a further data set is IL-6R (Homo sapiens) (UniProt P08887). The settings on record: cited from earlier work.
Setting [2] is: replicate 3, read-out: Bis-PMS 5 (IC50 / µM).
[3] abbreviates: replicate 1, read-out: Bis-PMS 5 (IC50 / µM).
Where [4] appears, read: replicate 2, read-out: Bis-PMS 5 (IC50 / µM).
[5] abbreviates: replicate 2, read-out: Bis-PMS 6 (IC50 / µM).
The mark [6] stands for this setting: replicate 3, read-out: Bis-PMS 6 (IC50 / µM).
Setting [7] is: replicate 1, read-out: Bis-PMS 6 (IC50 / µM).

Counter-ions that a name gives are not always drawn. Like-named read-outs stand apart in the source and are kept apart here.

As for `CN1C(=CC=C(C=CC2=[N+](C)c3ccccc3C2(C)C)c2ccc(C(C=CC3=[N+](C)c4ccccc4C3(C)C)=CC=C3N(C)c4ccccc4C3(C)C)cc2)C(C)(C)c2ccccc21` [compound 5, p-bis-pentamethinium salt 5], in [1], the Kd amounted to 26.5 ± 2.5 nM. This compound registered a CC50 at 48 h in “in vitro” (bj-htert cells, Bis-PMS 5 (IC50 / µM), replicate 2) of 1.7 µM. The CC50 in the data set on BJ-hTERT (setting [2]) was determined as 1.62 µM; in the data set with HFP4 (setting [3]), 1.78 µM; in the data set on HFP4 (setting [4]), 0.427 µM; with HFP4 (setting [2]), 0.757 µM. For the same compound, the IC50 in the data set on A2058 (setting [4]) stood at 0.396 µM; in the data set with A2058 (setting [2]), 0.178 µM; in the data set on BLM (setting [3]), 0.417 µM; in the data set with BLM (setting [2]), 0.183 µM; in the data set with BT-20 (setting [3]), 0.832 µM; in the data set with BT-20 (setting [4]) it was 0.38 µM. Further, the IC50 with BT-20 (setting [2]) is 0.891 µM; in the data set on H1299 (setting [3]), 2.69 µM; in the data set with H1299 (setting [4]) it was 2.82 µM; in the data set on U2-OS (setting [3]), 0.562 µM; in the data set with U2-OS (setting [4]), 0.631 µM; in the data set on U2-OS (setting [2]), 0.295 µM. Also, the IC50 was 0.9 µM in the data set on Gl261 (setting [3]), 1.04 µM in the data set on Gl261 (setting [4]), 0.501 µM in the data set on U251 (setting [3]) and 0.938 µM with U251 (setting [4]).

Regarding `CN1C(=CC=C(C=CC2=[N+](C)c3ccccc3C2(C)C)c2cccc(C(C=CC3=[N+](C)c4ccccc4C3(C)C)=CC=C3N(C)c4ccccc4C3(C)C)c2)C(C)(C)c2ccccc21` [compound 6, m-bis-pentamethinium salt 6], the Kd in data set [1] was 304 ± 27.6 nM. The CC50 at 48 h in “in vitro” (hf-p4 cells, Bis-PMS 6 (IC50 / µM), replicate 1) was 1.05 µM. Also, the CC50 with BJ-hTERT (setting [5]) is 1.66 µM; in the data set on BJ-hTERT (setting [6]), 0.776 µM; in the data set with HFP4 (setting [6]), 1.95 µM. The IC50 stood at 0.191 µM with A2058 (setting [7]); 1.07 µM in the data set on A2058 (setting [5]); 0.646 µM in the data set on A2058 (setting [6]); 0.933 µM in the data set on BLM (setting [7]); 1.91 µM with BLM (setting [6]); 0.724 µM in the data set on BT-20 (setting [7]). Besides, the IC50 with BT-20 (setting [5]) came to 0.617 µM; with BT-20 (setting [6]) it was 0.997 µM; in the data set with H1299 (setting [5]), 0.199 µM; in the data set on H1299 (setting [6]), 0.138 µM; in the data set with U2-OS (setting [7]), 0.257 µM; in the data set on U2-OS (setting [5]), 0.347 µM. For the same compound, the IC50 with U2-OS (setting [6]) came to 0.123 µM; in the data set with Gl261 (setting [7]), 0.218 µM; with Gl261 (setting [5]) it was 0.319 µM; in the data set with U251 (setting [7]), 0.485 µM; in the data set with U251 (setting [5]), 0.526 µM.

Take tocilizumab: in the data set with IL-6R (Homo sapiens), the Kd is 2.54 nM.
